Measured values taken from patent US9505786B2, “Substituted annulated triazines and use thereof” (BAYER INTELLECTUAL PROPERTY GMBH, priority 2012, dated 2016).
Where two headings read alike, the source gives them in different places.

Experiments:
aorta rings = experiment: Vasorelaxant effect in vitro (phenylephrine-contracted aorta rings); conditions: rabbit aorta rings, organ bath, phenylephrine contraction, read-out: IC50 (concentration needed to reduce the phenylephrine contraction by 50%)
Method: B-1. Vasorelaxant Effect In Vitro
Rabbits are stunned by a blow to the neck and exsanguinated. The aorta is removed, freed from adhering tissue and divided into rings of a width of 1.5 mm. The rings are placed individually under an initial tension in 5 ml organ baths with Krebs-Henseleit solution which is at 37° C., is gassed with carbogen and has the following composition (in each case mM): sodium chloride: 119; potassium chloride: 4.8; calcium chloride dihydrate: 1; magnesium sulphate heptahydrate: 1.4; potassium dihydrogenphosphate: 1.2; sodium bicarbonate: 25; glucose: 10. The contractile force is determined with Statham UC2 cells, amplified and digitalized using A/D transducers (DAS-1802 HC, Keithley Instruments Munich), and recorded in parallel on linear recorders.
To produce a contraction, phenylephrine is added to the bath cumulatively in increasing concentration. After several control cycles, the substance to be investigated is added in each further run in increasing dosage in each case, and the height of the contraction achieved is compared with the height of the contraction reached in the last preceding run. This is used to calculate the concentration needed to reduce the magnitude of the control value by 50% (IC50 value). The standard administration volume is 5 μl; the DMSO content in the bath solution corresponds to 0.1%.

[1] = tested on: recombinant guanylate cyclase reporter cell line; experiment: Effect on a recombinant guanylate cyclase reporter cell line; assay type: cell-based
Method: B-2. Effect on a Recombinant Guanylate Cyclase Reporter Cell Line
The cellular activity of the compounds according to the invention is determined using a recombinant guanylate cyclase reporter cell line, as described in F. Wunder et al., Anal. Biochem. 339, 104-112 (2005).

[2] = target: human phosphodiesterase 5 (PDE 5) (Homo sapiens (Human), UniProt O76074); experiment: Inhibition of human phosphodiesterase 5 (PDE 5), SPA assay; assay type: biochemical; conditions: PDE 5 preparation from human platelets, [8-3H] cGMP substrate
Method: B-6. Inhibition of Human Phosphodiesterase 5 (PDE 5)
PDE 5 preparations are obtained from human platelets by disruption (Microfluidizer®, 800 bar, 3 passes), followed by centrifugation (75 000 g, 60 min, 4° C.) and ion exchange chromatography of the supernatant on a Mono Q 10/10 column (linear sodium chloride gradient, elution with a 0.2-0.3M solution of sodium chloride in buffer (20 mM Hepes pH 7.2, 2 mM magnesium chloride). Fractions having PDE 5 activity are combined (PDE 5 preparation) and stored at −80° C.
To determine their in vitro action on human PDE 5, the test substances are dissolved in 100% DMSO and serially diluted. Typically, dilution series (1:3) from 200 μM to 0.091 μM are prepared (resulting final concentrations in the test: 4 μM to 0.0018 μM). In each case 2 μl of the diluted substance solutions are placed into the wells of microtitre plates (Isoplate-96/200W; Perkin Elmer). Subsequently, 50 μl of a dilution of the above-described PDE 5 preparation are added. The dilution of the PDE 5 preparation is chosen such that during the later incubation less than 70% of the substrate are converted (typical dilution: 1:100; dilution buffer: 50 mM Tris/hydrochloric acid pH 7.5, 8.3 mM magnesium chloride, 1.7 mM EDTA, 0.2% BSA). The substrate, [8-^3H] cyclic guanosine-3′,5′-monophosphate (1 μCi/μl; Perkin Elmer) is diluted 1:2000 with assay buffer (50 mM tris/hydrochloric acid pH 7.5, 8.3 mM magnesium chloride, 1.7 mM EDTA) to a concentration of 0.0005 μCi/μl. By addition of 50 μl (0.025 μCi) of the diluted substrate, the enzyme reaction is finally started. The test mixtures are incubated at room temperature for 60 min and the reaction is stopped by adding 25 μl of a suspension of 18 mg/ml yttrium scintillation proximity beads in water (phosphodiesterase beads for SPA assays, RPNQ 0150, Perkin Elmer). The microtitre plates are sealed with a film and left to stand at room temperature for 60 min. Subsequently, the plates are analysed for 30 s per well in a Microbeta scintillation counter (Perkin Elmer). IC50 values are determined using the graphic plot of the substance concentration against percentage PDE 5 inhibition.

IC50 (aorta rings; Oryctolagus cuniculus) [nM]	IC50 [2] [nM]	IC50 (aorta rings) [nM]	Compound	MEC (minimum effective concentration) [1] [nM]
137	260		CC1(CC2CC2)C(=O)Nc2nc(-c3nn(Cc4ccccc4F)c4ncc(F)cc34)nnc21 (racemic) [Example 5, 7-(Cyclopropylmethyl)-3-[5-fluoro-1-(2-fluorobenzyl)-1H-pyrazolo[3,4-b]pyridin-3-yl]-7-methyl-5,7-dihydro-6H-pyrrolo[2,3-e][1,2,4]triazin-6-one (racemate)]	100
246	1100		CC1(COCc2ccccc2)C(=O)Nc2nc(-c3nn(Cc4ccccc4F)c4ncc(F)cc34)nnc21 (racemic) [Example 6, 7-[(Benzyloxy)methyl]-3-[5-fluoro-1-(2-fluorobenzyl)-1H-pyrazolo[3,4-b]pyridin-3-yl]-7-methyl-5,7-dihydro-6H-pyrrolo[2,3-e][1,2,4]triazin-6-one (racemate)]	100
41	340		CCC1(C)C(=O)Nc2nc(-c3nn(Cc4ccccc4F)c4ncc(F)cc34)nnc21 (racemic) [Example 7, 7-Ethyl-3-[5-fluoro-1-(2-fluorobenzyl)-1H-pyrazolo[3,4-b]pyridin-3-yl]-7-methyl-5,7-dihydro-6H-pyrrolo[2,3-e][1,2,4]triazin-6-one (racemate)]	30
209	310		C=CCC1(C)C(=O)Nc2nc(-c3nn(Cc4ccccc4F)c4ncccc34)nnc21 (racemic) [Example 28, (rac) 7-Allyl-3-[1-(2-fluorobenzyl)-1H-pyrazolo[3,4-b]pyridin-3-yl]-7-methyl-5,7-dihydro-6H-pyrrolo[2,3-e][1,2,4]triazin-6-one]	30
218	1200		CC1(c2nncs2)C(=O)Nc2nc(-c3nn(Cc4ccccc4F)c4ncccc34)ncc21 (racemic) [Example 34, (rac) 2-[1-(2-Fluorobenzyl)-1H-pyrazolo[3,4-b]pyridin-3-yl]-5-methyl-5-(1,3,4-thiadiazol-2-yl)-5,7-dihydro-6H-pyrrolo[2,3-d]pyrimidin-6-one]	30
968	1750		CCOC(=O)C1(C)C(=O)Nc2nc(-c3nn(Cc4ccccc4F)c4ncccc34)nc(I)c21 (racemic) [Example 43, (rac) Ethyl 2-[1-(2-fluorobenzyl)-1H-pyrazolo[3,4-b]pyridin-3-yl]-4-iodo-5-methyl-6-oxo-6,7-dihydro-5H-pyrrolo[2,3-d]pyrimidine-5-carboxylate]	100
413	140		C=CCC1(C)C(=O)Nc2nc(-c3nn(Cc4ccccc4F)c4ncc(F)cc34)nnc21 (racemic) [Example 51, (rac) 7-Allyl-3-[5-fluoro-1-(2-fluorobenzyl)-1H-pyrazolo[3,4-b]pyridin-3-yl]-7-methyl-5,7-dihydro-6H-pyrrolo[2,3-e][1,2,4]triazin-6-one]	30
	350	321	CC1(CC2CC2)C(=O)Nc2nc(-c3nn(Cc4ccccc4F)c4ncc(F)cc34)nnc21 (single isomer, unassigned) [Example 5-1, 7-(Cyclopropylmethyl)-3-[5-fluoro-1-(2-fluorobenzyl)-1H-pyrazolo[3,4-b]pyridin-3-yl]-7-methyl-5,7-dihydro-6H-pyrrolo[2,3-e][1,2,4]triazin-6-one]	
	250	661	CC1(CC2CC2)C(=O)Nc2nc(-c3nn(Cc4ccccc4F)c4ncc(F)cc34)nnc21 (single isomer, unassigned) [Example 5-2, 7-(Cyclopropylmethyl)-3-[5-fluoro-1-(2-fluorobenzyl)-1H-pyrazolo[3,4-b]pyridin-3-yl]-7-methyl-5,7-dihydro-6H-pyrrolo[2,3-e][1,2,4]triazin-6-one]	
	200	59	CCC1(C)C(=O)Nc2nc(-c3nn(Cc4ccccc4F)c4ncc(F)cc34)nnc21 (single isomer, unassigned) [Example 7-1, 7-Ethyl-3-[5-fluoro-1-(2-fluorobenzyl)-1H-pyrazolo[3,4-b]pyridin-3-yl]-7-methyl-5,7-dihydro-6H-pyrrolo[2,3-e][1,2,4]triazin-6-one]	
	350	185	CCC1(C)C(=O)Nc2nc(-c3nn(Cc4ccccc4F)c4ncc(F)cc34)nnc21 (single isomer, unassigned) [Example 7-2, 7-Ethyl-3-[5-fluoro-1-(2-fluorobenzyl)-1H-pyrazolo[3,4-b]pyridin-3-yl]-7-methyl-5,7-dihydro-6H-pyrrolo[2,3-e][1,2,4]triazin-6-one]	
	130		Cc1nc(-c2nn(Cc3ccccc3F)c3ncccc23)nc2c1C(C)(C)C(=O)N2 [Example 22, 2-[1-(2-Fluorobenzyl)-1H-pyrazolo[3,4-b]pyridin-3-yl]-4,5,5-trimethyl-5,7-dihydro-6H-pyrrolo[2,3-d]pyrimidin-6-one]	100
	48		CC1(C)C(=O)Nc2nc(-c3nn(Cc4ccccc4F)c4ncccc34)nc(CNS(C)(=O)=O)c21 [Example 24, N-({2-[1-(2-Fluorobenzyl)-1H-pyrazolo[3,4-b]pyridin-3-yl]-5,5-dimethyl-6-oxo-6,7-dihydro-5H-pyrrolo[2,3-d]pyrimidin-4-yl}methyl)methanesulphonamide]	30
	215		CCOC(=O)/C=C/c1nc(-c2nn(Cc3ccccc3F)c3ncccc23)nc2c1C(C)(C)C(=O)N2 [Example 27, Ethyl 3-{2-[1-(2-fluorobenzyl)-1H-pyrazolo[3,4-b]pyridin-3-yl]-5,5-dimethyl-6-oxo-6,7-dihydro-5H-pyrrolo[2,3-d]pyrimidin-4-yl}acrylate]	300
	41		CCOC(=O)C#Cc1nc(-c2nn(Cc3ccccc3F)c3ncccc23)nc2c1C(C)(C)C(=O)N2 [Example 53, Ethyl 3-{2-[1-(2-fluorobenzyl)-1H-pyrazolo[3,4-b]pyridin-3-yl]-5,5-dimethyl-6-oxo-6,7-dihydro-5H-pyrrolo[2,3-d]pyrimidin-4-yl}prop-2-ynoate]	100
	145		CC1(C)C(=O)Nc2nc(-c3nn(Cc4ccccc4F)c4ncc(F)cc34)nc(CN3CCCC3=O)c21 [Example 54, 2-[5-Fluoro-1-(2-fluorobenzyl)-1H-pyrazolo[3,4-b]pyridin-3-yl]-5,5-dimethyl-4-[(2-oxopyrrolidin-1-yl)methyl]-5,7-dihydro-6H-pyrrolo[2,3-d]pyrimidin-6-one]	100
	190		CC1(C)C(=O)Nc2nc(-c3nn(Cc4ccccc4F)c4ncc(F)cc34)nc(CNS(=O)(=O)C3CC3)c21 [Example 55, N-({2-[5-Fluoro-1-(2-fluorobenzyl)-1H-pyrazolo[3,4-b]pyridin-3-yl]-5,5-dimethyl-6-oxo-6,7-dihydro-5H-pyrrolo[2,3-d]pyrimidin-4-yl}methyl)cyclopropanesulphonamide]	30
	15		CC1(C)C(=O)Nc2nc(-c3nn(Cc4ccccc4F)c4ncccc34)nc(CC(N)=O)c21 [Example 61, 2-{2-[1-(2-Fluorobenzyl)-1H-pyrazolo[3,4-b]pyridin-3-yl]-5,5-dimethyl-6-oxo-6,7-dihydro-5H-pyrrolo[2,3-d]pyrimidin-4-yl}acetamide]	30
